Experimental data: paper PMC10485906, “Development of a Dihydroquinoline–Pyrazoline GluN2C/2D-Selective Negative Allosteric Modulator of the N-Methyl-D-aspartate Receptor” (ACS Chemical Neuroscience, 2023)
“And” between values parts separate entries of the source, which are not always exact repeats. Identical values can stand only once. Marks after values point to notes of the source that are not given here.

Assays:
Assay type in all cases: cell-based
Set-up in all cases: GluN2B (NM_012574.1), GluN2C (NM_012575.3), and GluN2D (NM_022797.2) were provided by; expressed in transfected cells; host or cells: Xenopus laevis oocytes (cRNA injection)
[1] = target: GluN1/GluN2C (Rattus norvegicus, UniProt P35439+Q00961); assay: Two-electrode voltage-clamp recordings, Xenopus laevis oocytes, GluN1/GluN2C; conditions: 100 μM glutamate, 30 μM glycine; for IC50: read-out: IC50 GluN2C [95% CI]; for remaining activity at 30 µM: 30 μM test compound, mean ± SEM, read-out: I 30 μM / I control GluN2C
Chain of GluN1/GluN2C (Rattus norvegicus, UniProt P35439+Q00961) (Q00961 20-1237, other chains not shown): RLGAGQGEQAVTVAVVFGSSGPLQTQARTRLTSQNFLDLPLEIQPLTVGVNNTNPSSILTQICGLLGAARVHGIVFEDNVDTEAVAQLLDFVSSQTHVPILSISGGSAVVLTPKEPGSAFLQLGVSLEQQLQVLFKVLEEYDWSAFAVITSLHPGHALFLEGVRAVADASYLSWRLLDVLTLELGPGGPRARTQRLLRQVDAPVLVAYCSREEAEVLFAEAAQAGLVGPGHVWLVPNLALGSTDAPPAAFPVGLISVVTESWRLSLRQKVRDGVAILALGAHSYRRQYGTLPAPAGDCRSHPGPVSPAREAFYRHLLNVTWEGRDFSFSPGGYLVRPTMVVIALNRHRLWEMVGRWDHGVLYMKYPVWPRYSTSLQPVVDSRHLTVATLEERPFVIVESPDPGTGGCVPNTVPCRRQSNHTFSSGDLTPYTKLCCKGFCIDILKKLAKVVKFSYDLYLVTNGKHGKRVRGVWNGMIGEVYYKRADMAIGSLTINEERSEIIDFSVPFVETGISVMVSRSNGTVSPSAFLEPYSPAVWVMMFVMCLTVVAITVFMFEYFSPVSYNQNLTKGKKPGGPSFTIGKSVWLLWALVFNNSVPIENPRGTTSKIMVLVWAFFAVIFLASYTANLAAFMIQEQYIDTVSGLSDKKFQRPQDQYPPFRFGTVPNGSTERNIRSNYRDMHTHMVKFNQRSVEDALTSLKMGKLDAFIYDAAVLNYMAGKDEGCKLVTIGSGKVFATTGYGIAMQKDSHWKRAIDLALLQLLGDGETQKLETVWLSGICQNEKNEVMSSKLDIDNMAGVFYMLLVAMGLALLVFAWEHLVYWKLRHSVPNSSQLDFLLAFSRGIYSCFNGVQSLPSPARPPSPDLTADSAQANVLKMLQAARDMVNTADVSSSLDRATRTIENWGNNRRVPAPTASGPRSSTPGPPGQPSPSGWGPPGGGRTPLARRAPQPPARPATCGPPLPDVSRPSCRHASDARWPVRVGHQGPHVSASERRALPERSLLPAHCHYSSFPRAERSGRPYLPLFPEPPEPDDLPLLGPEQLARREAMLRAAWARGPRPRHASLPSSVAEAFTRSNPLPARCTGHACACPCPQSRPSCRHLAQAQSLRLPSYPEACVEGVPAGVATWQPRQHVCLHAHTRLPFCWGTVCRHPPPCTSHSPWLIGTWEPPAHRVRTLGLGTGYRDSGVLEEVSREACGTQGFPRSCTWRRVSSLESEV
Experimental: (§1) All target compounds were evaluated for NMDAR antagonism using two-electrode voltage-clamp recordings from Xenopus laevis oocytes coexpressing recombinant GluN1 and GluN2A-D subunits (Table 1).[32],[42],[33] All analogues were assessed as either a racemic (2b, 2e–2r) or diastereomeric (2d) mixture to simplify purification and streamline in vitro analysis. […] Moreover, as illustrated by the significant loss of NMDAR activity observed with nitrile 2e, the DQP allosteric site necessitated an H-bond donor/acceptor relationship at the carboxylate position. […] The loss of NMDAR activity observed with the trifluoro analogue 2j (Table S1) reinforced the necessity for an H-bond donor/acceptor relationship to maintain allosteric binding and established that fluorine substitution alone is ineffective. […] A single methyl substitution of the amide in compound 2q improved selectivity against GluN2A and had similar potency as 2a, whereas dual methyl substitution reduced potency (2r). We expect that this is likely due to the ability of the […] of the amide to accept hydrogen bonds while the amide can readily donate a proton.
(§2) Unfertilized Xenopus laevis oocytes were obtained from Ecocyte (Austin, TX), or ovaries were purchased from Xenopus 1 (Dexter, MI) and oocytes prepared as previously described.[42],[47] Two-electrode voltage-clamp recordings were performed on oocytes expressing recombinant rat GluN1/GluN2A, GluN1/GluN2B, GluN1/GluN2C, or GluN1/GluN2D. cDNAs for rat GluN1-1a (referred to as GluN1; NCBI Reference Sequence NM_017010.2), GluN2A (NM_012573.4), GluN2B (NM_012574.1), GluN2C (NM_012575.3), and GluN2D (NM_022797.2) were provided by Dr. S. Heinemann from the Salk Institute, Dr. S. Nakanishi from Kyoto University, and Dr. P. Seeburg from the University of Heidelberg. Oocyte isolation, cRNA synthesis, and cRNA injections were performed as previously described.[32],[33],[47] Briefly, Xenopus laevis oocytes were injected with 5–10 ng of cRNA in RNase-free water with the GluN1:GluN2 ratio ranging from 1:1 to 1:5. Oocytes were incubated at 15–19 °C in Barth’s solution consisting of (in mM) 88 NaCl, 1 KCl, 2.4 NaHCO3, 10 HEPES, 0.82 MgSO4, 0.33 Ca(NO3)2, and 0.41 CaCl2 supplemented with 100 μg/mL gentamycin, 40 μg/mL streptomycin, and 50 μg/mL penicillin. Recordings were performed 2–4 days after injection with extracellular recording solution containing (in mM) 90 NaCl, 1 KCl, 10 HEPES, 0.5 BaCl2, and 0.01 EDTA at pH 7.4 adjusted with NaOH. To prevent a gradual increase in current response over the course of the experiment, some oocytes expressing GluN1/GluN2A were injected with 20–50 nL of 2–50 mM K-BAPTA. Concentration–response curves for test compounds were generated by applying a maximally effective concentration of glutamate (100 μM) and glycine (30 μM), followed by glutamate and glycine with variable concentrations of test compounds up to 30 μM. The test compounds were prepared as 20 mM stock solutions in DMSO and diluted to the final concentration in recording solution. The DMSO content was 0.05–0.5% (v/v). […] Methods for off-target analysis are given in the Supporting Information.
(§3) Confidence intervals were determined for the log(IC50). The time course of relaxation during inhibitor application or deactivation following rapid removal of NMDA or glutamate was fitted by the equation [drawing 5] 2

[2] = target: GluN1/GluN2C (Rattus norvegicus, UniProt Q00961); assay: as above; conditions: for I3 μM/Icontrol GluN2C: tested at 3 μM; for I3 μM/Icontrol GluN2C / I / I control GluN2C: 100 μM glutamate, 30 μM glycine; for I / I control GluN2C: tested at 10 μM (footnote b)
Chain of GluN1/GluN2C (Rattus norvegicus, UniProt Q00961) (Q00961 20-1237, other chains not shown): as above
Experimental: as §1, §2, §3

[3] = target: GluN1/GluN2D (Rattus norvegicus, UniProt P35439+Q62645); assay: Two-electrode voltage-clamp recordings, Xenopus laevis oocytes, GluN1/GluN2D; conditions: 100 μM glutamate, 30 μM glycine; for IC50: read-out: IC50 GluN2D [95% CI]; for remaining activity at 30 µM: 30 μM test compound, mean ± SEM, read-out: I 30 μM / I control GluN2D
Chain of GluN1/GluN2D (Rattus norvegicus, UniProt P35439+Q62645) (Q62645 28-1323, other chains not shown): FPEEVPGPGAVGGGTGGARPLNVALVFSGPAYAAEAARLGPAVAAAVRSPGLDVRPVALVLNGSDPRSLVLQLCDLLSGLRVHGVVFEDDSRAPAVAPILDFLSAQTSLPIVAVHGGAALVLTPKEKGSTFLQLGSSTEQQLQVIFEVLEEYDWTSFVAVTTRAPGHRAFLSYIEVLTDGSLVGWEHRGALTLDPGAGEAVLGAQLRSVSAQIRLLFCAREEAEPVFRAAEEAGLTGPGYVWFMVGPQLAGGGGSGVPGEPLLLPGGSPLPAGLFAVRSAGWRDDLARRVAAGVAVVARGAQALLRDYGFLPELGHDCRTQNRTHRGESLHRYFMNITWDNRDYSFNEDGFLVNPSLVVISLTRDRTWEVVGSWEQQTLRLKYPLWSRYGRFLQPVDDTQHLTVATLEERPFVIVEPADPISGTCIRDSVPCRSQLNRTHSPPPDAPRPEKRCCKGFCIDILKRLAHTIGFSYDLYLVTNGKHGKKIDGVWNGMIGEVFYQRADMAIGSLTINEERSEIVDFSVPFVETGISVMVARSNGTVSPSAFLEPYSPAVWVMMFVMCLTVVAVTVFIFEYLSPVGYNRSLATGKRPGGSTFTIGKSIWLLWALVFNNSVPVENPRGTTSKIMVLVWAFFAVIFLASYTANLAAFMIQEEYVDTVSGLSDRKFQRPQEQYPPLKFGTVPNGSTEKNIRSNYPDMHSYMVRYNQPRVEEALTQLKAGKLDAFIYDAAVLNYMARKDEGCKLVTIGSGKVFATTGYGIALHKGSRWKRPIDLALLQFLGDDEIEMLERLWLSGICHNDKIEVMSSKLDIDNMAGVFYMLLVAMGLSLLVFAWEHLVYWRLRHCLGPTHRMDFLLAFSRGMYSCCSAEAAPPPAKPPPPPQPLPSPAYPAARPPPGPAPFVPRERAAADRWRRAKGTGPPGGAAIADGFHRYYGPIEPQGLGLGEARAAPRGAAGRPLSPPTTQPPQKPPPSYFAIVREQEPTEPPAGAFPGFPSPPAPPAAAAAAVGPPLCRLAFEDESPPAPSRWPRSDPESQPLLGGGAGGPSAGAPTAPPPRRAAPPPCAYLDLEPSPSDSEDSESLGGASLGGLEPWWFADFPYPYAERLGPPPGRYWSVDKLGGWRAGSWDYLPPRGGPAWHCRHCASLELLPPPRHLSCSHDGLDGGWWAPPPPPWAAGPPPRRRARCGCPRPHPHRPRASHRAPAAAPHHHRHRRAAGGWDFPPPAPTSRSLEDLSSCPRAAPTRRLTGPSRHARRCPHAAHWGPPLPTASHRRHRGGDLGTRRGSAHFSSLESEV
Experimental: as §1, §2, §3

[4] = target: GluN1/GluN2D (Rattus norvegicus, UniProt Q62645); assay: as above; conditions: for Selectivity 2A IC50 / 2D IC50: GluN2D over GluN2A; for Selectivity 2B IC50 / 2D IC50: GluN2D over GluN2B; for I3 μM/Icontrol GluN2D: tested at 3 μM; for I3 μM/Icontrol GluN2D / I / I control GluN2D: 100 μM glutamate, 30 μM glycine; for I / I control GluN2D: tested at 10 μM (footnote b)
Chain of GluN1/GluN2D (Rattus norvegicus, UniProt Q62645) (Q62645 28-1323, other chains not shown): as above
Experimental: as §1, §2, §3

[5] = mean ± SEM, listed as racemic 2i
[6] = 1 µM compound, 100 µM glutamate, 30 µM glycine, mean ± SEM

Row | Compound | IC50 [1] | I3 μM/Icontrol GluN2C ([2]; mean ± SEM) | IC50 [3] | Selectivity 2A IC50 / 2D IC50 [4] | Selectivity 2B IC50 / 2D IC50 [4] | I3 μM/Icontrol GluN2D ([4]; mean ± SEM) | remaining activity at 30 µM [1] | remaining activity at 30 µM [3] | I / I control GluN2C ([2]; mean ± SEM) | I / I control GluN2D ([4]; mean ± SEM) | other results
1 | O=C(O)CC(F)(F)C(=O)N1N=C(c2c(-c3ccc(Cl)cc3)c3ccccc3[nH]c2=O)CC1c1ccc(Cl)cc1 (centres unmarked) [2i] | 350 nM | 13 ± 2.5% and 13 ± 2.5 ^b (2,12) % | 130 nM | 43 fold | 123 fold | 12 ± 1.8% and 12 ± 1.8 ^b (2,16) % | – | – | – | – | I3 μM/Icontrol GluN2C [2, 5]: 13 ± 2.5 (2, 12) %; I3 μM/Icontrol GluN2D [4, 5]: 12 ± 1.8 (2, 16) %
2 | CCOC(=O)CC(F)(F)C(=O)N1N=C(c2c(-c3ccc(Cl)cc3)c3ccccc3[nH]c2=O)CC1c1ccc(Cl)cc1 (centres unmarked) [2l] | – | – | – | – | – | – | 93 ± 0.7% | 87 ± 0.8% | – | – | –
3 | CC(C)OC(=O)CC(F)(F)C(=O)N1N=C(c2c(-c3ccc(Cl)cc3)c3ccccc3[nH]c2=O)CC1c1ccc(Cl)cc1 (centres unmarked) [2m] | – | – | – | – | – | – | 90 ± 4.3% | 92 ± 3.1% | – | – | –
4 | O=C(CC(F)(F)C(=O)N1N=C(c2c(-c3ccc(Cl)cc3)c3ccccc3[nH]c2=O)CC1c1ccc(Cl)cc1)OCC1CC1 (centres unmarked) [2n] | – | – | – | – | – | – | 93 ± 4.2% | 92 ± 2.7% | – | – | –
5 | O=C(CC(F)(F)C(=O)N1N=C(c2c(-c3ccc(Cl)cc3)c3ccccc3[nH]c2=O)CC1c1ccc(Cl)cc1)OCc1ccccc1 (centres unmarked) [2p] | – | – | – | – | – | – | 98 ± 0.95% | 96 ± 0.53% | – | – | –
6 | CNC(=O)CC(F)(F)C(=O)N1N=C(c2c(-c3ccc(Cl)cc3)c3ccccc3[nH]c2=O)CC1c1ccc(Cl)cc1 (centres unmarked) [2q] | 670 nM | – | 410 nM | 90 fold | 49 fold | – | – | – | 16 ± 1.6 ^b (3, 20) % | 12 ± 1.5 ^b (3, 18) % | –

Further lines, with some results ahead:

Row | IC50 [1] | I3 μM/Icontrol GluN2C ([2]; mean ± SEM) | IC50 [3] | Selectivity 2A IC50 / 2D IC50 [4] | Selectivity 2B IC50 / 2D IC50 [4] | I3 μM/Icontrol GluN2D ([4]; mean ± SEM) | remaining activity at 30 µM [1] | remaining activity at 30 µM [3] | I / I control GluN2C ([2]; mean ± SEM) | I / I control GluN2D ([4]; mean ± SEM) | Compound | other results
7 | 380 nM | 22 ± 5.2 ^b (3,16) % | 240 nM | 24 fold | 13 fold | 16 ± 2.3 ^b (3,17) % | – | – | – | – | NC(=O)CC(F)(F)C(=O)N1N=C(c2c(-c3ccc(Cl)cc3)c3ccccc3[nH]c2=O)CC1c1ccc(Cl)cc1 (centres unmarked) [2k] | –
8 | – | – | – | – | – | – | – | – | 87 ± 0.8% | 82 ± 0.7% | CC(C)(C)COC(=O)CC(F)(F)C(=O)N1N=C(c2c(-c3ccc(Cl)cc3)c3ccccc3[nH]c2=O)CC1c1ccc(Cl)cc1 (centres unmarked) [2o] | –
9 | 4100 nM | – | 1400 nM | – | – | – | – | – | 28 ± 2.2 ^b (4,20) % | 19 ± 1.6 ^b (3,14) % | CN(C)C(=O)CC(F)(F)C(=O)N1N=C(c2c(-c3ccc(Cl)cc3)c3ccccc3[nH]c2=O)CC1c1ccc(Cl)cc1 (centres unmarked) [2r] | –
10 | 61 nM | 13 ± 2.6 (3, 16) % | 35 nM | 134 fold | 457 fold | 3.8 ± 0.60 (4, 25) % | – | – | – | – | O=C(O)CC(F)(F)C(=O)N1N=C(c2c(-c3ccc(Cl)cc3)c3ccccc3[nH]c2=O)C[C@H]1c1ccc(Cl)cc1 [(S)-(−)-2i] | % control GluN1/GluN2C [2, 6]: 16 ± 2.9%; selectivity for GluN2C-containing NMDARs compared to GluN2A- and GluN2B-containing receptors ([2]; abstract): > 100 fold; % control GluN1/GluN2D [4, 6]: 4.3 ± 0.73%; fold more potent than (S)-2a ([4]; abstract): 5 fold
